Earlier results, collected in patent US10143639B2, “Use of adelmidrol and other topical or oral cannabinomimetic or aliamide mast cell inhibitors to treat dermatoheliosis, seborrheic keratoses, and androgenetic alopecia” (priority 2017, dated 2018).

What was measured:
AGA patients = settings: share of treated AGA patients improving
AGA scalp = settings: topical application, especially in subjects already taking finasteride
hair growth in mice = settings: applied to the skin of mice

## CC(C)(C)NC(=O)[C@H]1CC[C@H]2[C@@H]3CC[C@H]4NC(=O)C=C[C@]4(C)[C@H]3CC[C@]12C [finasteride]
AGA patients
  clinical improvement in treated AGA patients: 50-60%

## CCCCC/C=C\C/C=C\CCCCCCCC(=O)O [linoleic acid]
AGA scalp
  hair growth: improved hair growth

## CCCCCCCCCCCCCCCC(=O)NCCO [PEA, palmitoylethanolamide]
NGF
  pro-inflammatory effects of NGF: turned off the pro-inflammatory effects of NGF

## CCCCC[C@H](O)/C=C/[C@H]1C(=O)C[C@H](O)[C@@H]1C/C=C\CCCC(=O)O [PGD2, Prostaglandin D2]
Hair growth in mice
  hair growth: stopped hair growth
